Experimental data from patent publication US5756491A, “Antiviral cobalt-organic compounds” (priority 1991, dated 1998).

Columns and labels:
HFF cells [1] = assay: MTT assay for cell cytotoxicity; format: cell-based, human; conditions: stationary cells
RE strain HSV-1 = assay: HSV-1 recovery from tear film, cornea and trigeminal ganglia of treated rabbits; format: in vivo, NZW rabbit
Procedure, shortened: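 NZW rabbits (1.5-2.0 kg) were inoculated bilaterally by intrastromal injection of 10^5 PFU HSV-1. Tear-film swabs on days 0, 3, 5 and 7 PI were cultured on HFF monolayers and scored for CPE. After sacrifice, corneal epithelial/stromal and trigeminal ganglion co-cultures were scored positive or negative for HSV CPE; negative ganglion cultures were blind-passaged twice.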

HSV-1 McKrae Strain = assay: Direct virucidal efficacy against HSV-1 on HFF monolayers; format: cell-based; conditions: for effective virucidal concentration IC50 / effective virucidal concentration IC90: HSV-1
[2] = tested on: human foreskin fibroblast (HFF) cell monolayers; assay: Toxicity effects controls: sham-inoculated compound-treated HFF monolayers; format: cell-based; for Toxicity effects: key: +: toxic; -: no toxicity; ±: mild toxicity; T: toxicity effects interfered with CPE rating
Text: With sufficient stirring, all the compounds completely dissolved.
In the tables, the symbols have the meaning indicated: […]

HFF cells [3] = assay: Cell proliferation assay; format: cell-based, human; conditions: rapidly growing cells
HFF cells [4] = assay: Neutral red uptake toxicity; format: cell-based, human; conditions: stationary cells

For `CC([O-])=CC(C)=NCCN=C(C)C=C(C)[O-].Cc1ncc[nH]1.Cc1ncc[nH]1.[Br-].[Co+3]` [Compound 96], which “toxicity IC50, MTT toxicity” value (HFF cells [1]) is on record?
The value was > 74 MCG/ML.

And the “HSV-1 recovery, corneal epithelium (C.E.)” value (RE strain HSV-1; Example 3 (Table 22))?
Its value is 50%.

What about the “HSV-1 recovery, corneal stroma (C.S.)” value (RE strain HSV-1; Example 3 (Table 22)) of the same compound?
Its value is 50%.

And the “HSV-1 recovery, trigeminal ganglia (T.G.)” value (RE strain HSV-1; Example 3 (Table 22))?
The value was 50%.

What about the “HSV-1 recovery, tear film (positive samples of total)” value (“HSV-1 recovery, tear film” for short) (RE strain HSV-1; Example 3 (Table 22), day 3 PI) of the same compound?
The value was 100%.

And the “HSV-1 recovery, tear film” value (RE strain HSV-1; Example 3 (Table 22), day 5 PI)?
Its value is 100%.

What about the “HSV-1 recovery, tear film” value (RE strain HSV-1; Example 3 (Table 22), day 7 PI) of the same compound?
Its value is 80%.

And the “HSV-1 recovery, tear film” value (RE strain HSV-1; Example 3 (Table 22), day 9 PI)?
Its value is 0%.

What about the “recovery of HSV-1 in tear film” value (RE strain HSV-1; Example 4) of the same compound?
The value was “reduced the recovery of HSV-1 in tear film”.

What about the “HSV-1 recovery, corneal stroma” value (RE strain HSV-1; Example 5 (Table 23)) of the same compound?
The value was 70%.

What about the “HSV-1 recovery (positive cultures per total)” value (RE strain HSV-1; Example 5 (Table 23), column 1) of the same compound?
Its value is 0%.

What about the “HSV-1 recovery (positive cultures per total)” value (RE strain HSV-1; Example 5 (Table 23), column 3) of the same compound?
The value was 100%.

What about the “HSV-1 recovery (positive cultures per total)” value (RE strain HSV-1; Example 5 (Table 23), column 5) of the same compound?
The value was 90%.

And the “HSV-1 recovery (positive cultures per total)” value (RE strain HSV-1; Example 5 (Table 23), column 7)?
The value was 70%.

What about the “virucidal efficacy (HSV-1 titer)” value (HSV-1 McKrae Strain; Experiment 2 (Table 5), 24 h PI, 0.001 mg/ml) of the same compound?
The value was 10^4 PFU/ml.

And the “virucidal efficacy (HSV-1 titer)” value (HSV-1 McKrae Strain; Experiment 2 (Table 5), 24 h PI, 1 mg/ml)?
The value was 0 PFU/ml.

And the “virucidal efficacy (HSV-1 titer)” value (HSV-1 McKrae Strain; Experiment 2 (Table 5), 48 h PI, 0.01 mg/ml)?
The value was 10^6 PFU/ml.

And the “virucidal efficacy (HSV-1 titer)” value (HSV-1 McKrae Strain; Experiment 2 (Table 5), 48 h PI, 1 mg/ml)?
Its value is 0 PFU/ml.

What about the “effective virucidal concentration IC50” value (HSV-1 McKrae Strain; Experiment 2 (Table 6)) of the same compound?
Its value is 100 µg/mL.

And the “virucidal efficacy (HSV-1 titer)” value (HSV-1 McKrae Strain; Experiment 3 (Table 8), 24 h PI, 0.001 mg/ml)?
The value was 10^5 PFU/ml.

And the “virucidal efficacy (HSV-1 titer)” value (HSV-1 McKrae Strain; Experiment 3 (Table 8), 24 h PI, 1 mg/ml)?
The value was 0 PFU/ml.

What about the “virucidal efficacy (HSV-1 titer)” value (HSV-1 McKrae Strain; Experiment 3 (Table 8), 48 h PI, 1 mg/ml) of the same compound?
The value was 10^5 PFU/ml.

What about the “virucidal efficacy (HSV-1 titer)” value (HSV-1 McKrae Strain; Experiment 4 (Table 9), 24 h PI, Run 1, 5 mg/ml) of the same compound?
The value was 0 PFU/ml.

What about the “virucidal efficacy (HSV-1 titer)” value (HSV-1 McKrae Strain; Experiment 4 (Table 9), 24 h PI, Run 2, 0.01 mg/ml) of the same compound?
Its value is 10^4 PFU/ml.

What about the “virucidal efficacy (HSV-1 titer)” value (HSV-1 McKrae Strain; Experiment 4 (Table 9), 24 h PI, Run 2, 0.1 mg/ml) of the same compound?
Its value is 10^2 PFU/ml.

What about the “virucidal efficacy (HSV-1 titer)” value (HSV-1 McKrae Strain; Experiment 4 (Table 9), 24 h PI, Run 2, 1 mg/ml) of the same compound?
Its value is 0 PFU/ml.

What about the “virucidal efficacy (HSV-1 titer)” value (HSV-1 McKrae Strain; Experiment 4 (Table 9), 24 h PI, Run 2, 5 mg/ml) of the same compound?
The value was 0 PFU/ml.

What about the “effective virucidal concentration IC90” value (HSV-1 McKrae Strain; Experiment 4 (Table 11)) of the same compound?
The value was > 1000 µg/mL.

And the “virucidal efficacy (HSV-1 titer)” value (HSV-1 McKrae Strain; Experiment 5 (Table 12), 24 h PI, Run 1, 0.0001 mg/ml)?
The value was 10^5 PFU/ml.

And the “virucidal efficacy (HSV-1 titer)” value (HSV-1 McKrae Strain; Experiment 5 (Table 12), 24 h PI, Run 1, 0.1 mg/ml)?
Its value is 10^2 PFU/ml.

And the “virucidal efficacy (HSV-1 titer)” value (HSV-1 McKrae Strain; Experiment 5 (Table 12), 24 h PI, Run 1, 1 mg/ml)?
The value was 0 PFU/ml.

What about the “virucidal efficacy (HSV-1 titer)” value (HSV-1 McKrae Strain; Experiment 5 (Table 12), 24 h PI, Run 1, 5 mg/ml) of the same compound?
Its value is 0 PFU/ml.

And the “virucidal efficacy (HSV-1 titer)” value (HSV-1 McKrae Strain; Experiment 5 (Table 12), 24 h PI, Run 2, 0.0001 mg/ml)?
Its value is 10^3 PFU/ml.

What about the “virucidal efficacy (HSV-1 titer)” value (HSV-1 McKrae Strain; Experiment 5 (Table 12), 24 h PI, Run 2, 0.001 mg/ml) of the same compound?
Its value is 10^3 PFU/ml.

What about the “virucidal efficacy (HSV-1 titer)” value (HSV-1 McKrae Strain; Experiment 5 (Table 12), 24 h PI, Run 2, 0.01 mg/ml) of the same compound?
The value was 10^3 PFU/ml.

What about the “virucidal efficacy (HSV-1 titer)” value (HSV-1 McKrae Strain; Experiment 5 (Table 12), 24 h PI, Run 2, 0.1 mg/ml) of the same compound?
Its value is 0 PFU/ml.

And the “virucidal efficacy (HSV-1 titer)” value (HSV-1 McKrae Strain; Experiment 5 (Table 12), 24 h PI, Run 2, 1 mg/ml)?
The value was 0 PFU/ml.

What about the “virucidal efficacy (HSV-1 titer)” value (HSV-1 McKrae Strain; Experiment 5 (Table 12), 24 h PI, Run 2, 5 mg/ml) of the same compound?
The value was 0 PFU/ml.

And the “effective virucidal concentration IC50” value (HSV-1 McKrae Strain; Experiment 5 (Table 14))?
The value was 100 to 1000 µg/mL.

What about the “effective virucidal concentration IC90” value (HSV-1 McKrae Strain; Experiment 5 (Table 14)) of the same compound?
Its value is > 1000 µg/mL.

What about the “virucidal efficacy (HSV-1 titer)” value (HSV-1 McKrae Strain; Experiment 6 (Table 16), 24 h PI, 0.5 mg/ml) of the same compound?
Its value is 0 PFU/ml.

And the “virucidal efficacy (HSV-1 titer)” value (HSV-1 McKrae Strain; Experiment 6 (Table 16), 24 h PI, 1 mg/ml)?
Its value is 0 PFU/ml.

And the “virucidal efficacy (HSV-1 titer)” value (HSV-1 McKrae Strain; Experiment 6 (Table 16), 24 h PI, 2 mg/ml)?
Its value is 0 PFU/ml.

And the “virucidal efficacy (HSV-1 titer)” value (HSV-1 McKrae Strain; Experiment 6 (Table 16), 24 h PI, 5 mg/ml)?
Its value is 0 PFU/ml.

And the “effective virucidal concentration IC50” value (HSV-1 McKrae Strain; Experiment 6 (Table 17))?
Its value is 100 µg/mL.

What about the “efficacy in virucidal assay (comment)” value (HSV-1 McKrae Strain; Experiment 6 comment, reduction in toxicity resulted in it) of the same compound?
The value was “reduction in efficacy”.

And the “toxicity at 1 mg/ml (comment)” value [2]?
The value was “a lack of toxicity”.

And the toxicity effects ([2]; Experiment 3 (Table 7), 24 h PI, 0.001 mg/ml)?
The toxicity effects was “-”.

What about the toxicity effects ([2]; Experiment 3 (Table 7), 24 h PI, 0.01 mg/ml) of the same compound?
Its toxicity effects is “-”.

And the toxicity effects ([2]; Experiment 3 (Table 7), 24 h PI, 0.1 mg/ml)?
Its toxicity effects is “-”.

And the toxicity effects ([2]; Experiment 3 (Table 7), 24 h PI, 1 mg/ml)?
The toxicity effects was “-”.

And the toxicity effects ([2]; Experiment 3 (Table 7), 48 h PI, 0.001 mg/ml)?
The toxicity effects was “-”.

What about the toxicity effects ([2]; Experiment 3 (Table 7), 48 h PI, 0.01 mg/ml) of the same compound?
Its toxicity effects is “-”.

And the toxicity effects ([2]; Experiment 3 (Table 7), 48 h PI, 0.1 mg/ml)?
Its toxicity effects is “-”.

What about the toxicity effects ([2]; Experiment 3 (Table 7), 48 h PI, 1 mg/ml) of the same compound?
The toxicity effects was “-”.

What about the toxicity effects ([2]; Experiment 4 (Table 10), 24 h, 0.001 mg/ml) of the same compound?
The toxicity effects was “-”.

What about the toxicity effects ([2]; Experiment 4 (Table 10), 24 h, 0.01 mg/ml) of the same compound?
The toxicity effects was “-”.

What about the toxicity effects ([2]; Experiment 4 (Table 10), 24 h, 0.5 mg/ml) of the same compound?
Its toxicity effects is “-”.

What about the toxicity effects ([2]; Experiment 4 (Table 10), 24 h, 1 mg/ml) of the same compound?
Its toxicity effects is “-”.

What about the toxicity effects ([2]; Experiment 4 (Table 10), 48 h, 0.001 mg/ml) of the same compound?
The toxicity effects was “-”.

And the toxicity effects ([2]; Experiment 4 (Table 10), 48 h, 0.01 mg/ml)?
The toxicity effects was “-”.

And the toxicity effects ([2]; Experiment 4 (Table 10), 48 h, 0.5 mg/ml)?
The toxicity effects was “-”.

And the toxicity effects ([2]; Experiment 5 (Table 13), 24 h, 0.00 mg/ml (so in the source))?
Its toxicity effects is “-”.

What about the toxicity effects ([2]; Experiment 5 (Table 13), 24 h, 0.01 mg/ml) of the same compound?
The toxicity effects was “-”.

What about the toxicity effects ([2]; Experiment 5 (Table 13), 24 h, 0.5 mg/ml) of the same compound?
The toxicity effects was “-”.

And the toxicity effects ([2]; Experiment 5 (Table 13), 48 h, 0.00 mg/ml (so in the source))?
Its toxicity effects is “-”.

And the toxicity effects ([2]; Experiment 5 (Table 13), 48 h, 0.01 mg/ml)?
Its toxicity effects is “-”.

What about the toxicity effects ([2]; Experiment 5 (Table 13), 48 h, 0.5 mg/ml) of the same compound?
Its toxicity effects is “-”.

And the toxicity effects ([2]; Experiment 5 (Table 13), 48 h, 5 mg/ml)?
The toxicity effects was “+”.

What about the toxicity effects ([2]; Experiment 6 (Table 15), 48 h, 0.001 mg/ml) of the same compound?
Its toxicity effects is “-”.

And the toxicity effects ([2]; Experiment 6 (Table 15), 48 h, 0.01 mg/ml)?
The toxicity effects was “-”.

What about the toxicity effects ([2]; Experiment 6 (Table 15), 48 h, 1 mg/ml) of the same compound?
Its toxicity effects is “-”.

And the “toxicity to HFF monolayers (comment)” value ([2]; Experiment 6 comment, more pronounced at 0.5 and 0.1 mg/ml, cell rounding, detaching, granularity)?
Its value is “toxicity observed”.

And the “toxicity IC50, cell proliferation” value (HFF cells [3])?
Its value is 21.0 MCG/ML.

And the “toxicity IC50, neutral red uptake” value (HFF cells [4])?
The value was 22.0 MCG/ML.
